Square brackets hold non-standard residues; d marks the D form. Ends that are not written are not given here. Peptide text beside a SMILES is read from it. Aib = CC(C)(N)C(=O)O

Series [1] deals with MOLT-4 cells. Description: Cyclic GMP assay in MOLT-4 cells. The conditions noted are these: for activity in cGMP dose-response curves (FIG. 1): evaluated from 1 to 1000 μgs/ml in MOLT-4 cells. The series is classed as cell-based, human. The source says: This assay measures the ability of a peptide of this invention to bind to the cell membrane receptor of the intact MOLT-4 cell and selectively stimulate production of cyclic GMP, as does human thysplenin and human thymopentin.
The MOLT-4 cell line was obtained from the American Type Culture Collection of Rockville, Md. MOLT-4 cells were freshly seeded and grown for 3 days with harvesting as described in T. Audhya et al, Arch. Biochem Biophys., 234: 167-177 (1984). The cells were washed 3 times in PBS and resuspended in RPMI 1640 at a concentration of 1.0×10^7 cells/ml and were allowed to equilibrate at 37° C. for 30 minutes before the addition of the test tetrapeptides and pentapeptides (25 ul) and control peptides. The incubation was allowed to proceed in a shaking water bath for 4-5 minutes and was then terminated by addition of 1 ml ice-cold TCA (10 percent).
The cells in TCA were homogenized and sonicated to release cyclic nucleotide. The suspension was centrifuged at 3000×g for 20 minutes at 4° C. The resulting precipitate was dissolved in 0.1N NaOH to determine the protein content. TCA was removed from the supernatant fraction by extracting 4 times with 5 ml of water-saturated diethyl ether. After the final extraction, the remaining traces of ether were removed by heating for 10 minutes in a 50° C. water bath. After lyophilization the sample was reconstituted in 50 mM acetate buffer (pH 6.2) for radioimmunoassay of cyclic GMP.
A threshold activity was determined for each peptide tested. This is defined as the lowest concentration of the test peptide which induced an intracellular level of cyclic GMP greater than two standard deviations above the control. The controls had intracellular cyclic GMP values of less than 0.5 picomoles/ml (mean±standard deviation). Test results were considered positive if the level of cyclic GMP was greater than 2 times (2 standard deviations) that determined for the parallel negative control.

Series [2] is described as follows: Enzymatic stability in human serum. The conditions noted are these: 37° C., HPLC. It is filed as in vitro ADME. The text has this:
Thymopentin was 50% degraded at about 20 seconds.

A short description of series [3]: Enzymatic stability in rat intestinal juice. The conditions noted are these: 37° C., HPLC.
Procedure: To illustrate the stability of a peptide of the present invention against degradation by intestinal and serum enzymes, an exemplary peptide Acetyl-Arg-Pro-Asp-Val-NH2 was incubated at 37° C. in rat intestinal juice and human serum for up to 120 minutes. Similarly treated for comparison were the tetrapeptide Arg-Lys-Asp-Val and thymopentin.
The subject of another series is BP8 murine tumor cells. In words: BP8 tumor inhibition assay. It is filed as in vivo, C3H mice. The conditions noted are these: 30 ng or 30 μg subcutaneously once per week, vs glycine-raffinose vehicle. As to the method:
An assay is performed using normal healthy C3H laboratory mice. The mice, in groups of 12 to 20, are injected subcutaneously with either 30 ng or 30 μg of a peptide of the present invention once per week. This peptide (acetyl-Arg-Pro-Val-Ala-NH2) called splenoralin was administered in citrate buffer containing 1% glycine and 2% D-raffinose pentahydrate, as described in pending United States patent application Ser. No. 336,236, incorporated herein by reference. A control group of mice were injected similarly with 30 μg of the glycine-raffinose vehicle without the peptide.
Four weeks after the initiation of these weekly injections, each mouse was inoculated intradermally with 5×10^6 BP8 murine tumor cells. BP8 is a conventional benzpyrene induced murine tumor. Once every week thereafter, each mouse is injected with the same amount of either the peptide formulation or the vehicle alone.
FIG. 3 indicates the percent of mice in each group which are negative for the presence of BP8 tumors in the days after the inoculation of tumor cells. FIG. 4 indicates for the same experiment the maximum size of tumors in those mice that did develop tumors.

Series [4] deals with non-obese diabetic (NOD) mice. Description: Diabetic mice assay. The series is classed as in vivo. The following applies: 1 mg/kg body weight one time a week from weaning, vs vehicle. The text has this:
A strain of non-obese diabetic (NOD) laboratory mice maintained in Hopital Necker, Paris, France, have been bred in which the females spontaneously develop autoimmune disease of the pancreas. In the normal course of this disease in mice, the pancreatic cells are destroyed, resulting in loss of insulin production and diabetes mellitus. This mouse strain thus is a close model of Type I onset juvenile diabetes, which is normally treated with insulin replacement, but which can be typically slowed by immunosuppressive drugs, e.g., cyclosporin.
In this assay, groups of 12 to 20 NOD female mice are injected with 1 mg/kg body weight of a peptide of the present invention one time a week at weaning. This peptide (acetyl-Arg-Pro-Val-Ala-NH2) called splenoralin was administered the above-described formulation containing glycine and raffinose. A control group of mice were injected similarly with 1 mg of the glycine-raffinose vehicle without the peptide one time a week.

The conditions of series [5]: Kisfaludy et al 1983; cited from earlier work.
Series [6] relates to MOLT-4 cells. The following applies: cited from earlier work.
The next series relates to CEM cells. The conditions noted are these: cited from earlier work.
The mark [7] stands for this setting: Table I, peptide concentration 1 μg/ml.
Where [8] appears, read: Table I, peptide concentration 10 μg/ml.
Where [9] appears, read: Table I, peptide concentration 100 μg/ml.
Setting [10] is: Table I, peptide concentration 1000 μg/ml.
Setting [11] is: Table II, peptide concentration 1 μg/ml.
Setting [12] is: Table II, peptide concentration 10 μg/ml.
Where [13] appears, read: Table II, peptide concentration 100 μg/ml.

For the molecule `CC(=O)N[C@@H](CCCNC(=N)N)C(=O)NC(C)(C)C(=O)N[C@@H](C)C(=O)N[C@H](C(N)=O)C(C)C` [Acetyl-Arg--Aib--Ala--Val--NH2, Acetyl-Arg-Aib-Ala-Val-NH2] (Ac-R[Aib]AV-NH2), the “cGMP Concentration” value with MOLT-4 cells [1] (setting [7]) turned out to be 18.78 picograms/ml; in the series on MOLT-4 cells [1] (setting [8]), 30.45 picograms/ml; with MOLT-4 cells [1] (setting [9]) it was 36.17 picograms/ml; in the series with MOLT-4 cells [1] (setting [10]), 39.48 picograms/ml.
In the same order, the values of `CC(=O)N[C@@H](CCCNC(=N)N)C(=O)NC(C)(C)C(=O)N[C@@H](CCC(=O)O)C(=O)N[C@H](C(N)=O)C(C)C` [Acetyl-Arg--Aib--Glu--Val--NH2, Acetyl-Arg-Aib-Glu-Val-NH2] (Ac-R[Aib]EV-NH2) are 3.7 picograms/ml, 11.0 picograms/ml, 17.7 picograms/ml and 24.9 picograms/ml.
Take `CC(=O)N[C@@H](CCCNC(=N)N)C(=O)N1CCC[C@H]1C(=O)N[C@@H](C)C(=O)N[C@H](C(N)=O)C(C)C` [Acetyl-Arg--Pro--Ala--Val--NH2, Acetyl-Arg-Pro-Ala-Val-NH2] (Ac-RPAV-NH2): the “cGMP Concentration” value with MOLT-4 cells [1] (setting [7]) was 7.1 picograms/ml; with MOLT-4 cells [1] (setting [8]) it was 14.6 picograms/ml; with MOLT-4 cells [1] (setting [9]) it was 19.1 picograms/ml; in the series on MOLT-4 cells [1] (setting [10]), 24.5 picograms/ml. Further, the “activity in cGMP dose-response curves (FIG. 1)” value (from here on “activity … (FIG. 1)”) in the series on MOLT-4 cells [1] is “active”.
As for `CC(=O)N[C@@H](CCCNC(=N)N)C(=O)N1CCC[C@H]1C(=O)N[C@@H](CC(=O)O)C(=O)N[C@H](C(N)=O)C(C)C` [Acetyl-Arg--Pro--Asp--Val--NH2, Acetyl-Arg-Pro-Asp-Val-NH2] (Ac-RPDV-NH2), the “cGMP Concentration” value in the series with MOLT-4 cells [1] (setting [7]) came to 4.55 picograms/ml; with MOLT-4 cells [1] (setting [8]), 8.99 picograms/ml; in the series with MOLT-4 cells [1] (setting [9]), 19.62 picograms/ml; with MOLT-4 cells [1] (setting [10]), 24.09 picograms/ml. Also, the “time remaining substantially undegraded” value in series [2] and in series [3] (rat intestinal juice) was “at least 120 seconds” in each case.
For the molecule `CC(=O)N[C@@H](CCCNC(=N)N)C(=O)N1CCC[C@H]1C(=O)N[C@@H](CCC(N)=O)C(=O)N[C@H](C(N)=O)C(C)C` [Acetyl-Arg--Pro--Gln--Val--NH2] (Ac-RPQV-NH2), the “cGMP Concentration” value in the series with MOLT-4 cells [1] (setting [7]) is given as 18.75 picograms/ml; in the series with MOLT-4 cells [1] (setting [8]) it was 29.68 picograms/ml; in the series with MOLT-4 cells [1] (setting [9]), 34.98 picograms/ml; in the series on MOLT-4 cells [1] (setting [10]), 40.23 picograms/ml.
As for `CC(=O)N[C@@H](CCCNC(=N)N)C(=O)N1CCC[C@H]1C(=O)N[C@@H](CCC(=O)O)C(=O)N[C@H](C(N)=O)C(C)C` [Acetyl-Arg--Pro--Glu--Val--NH2, Acetyl-Arg-Pro-Glu-Val-NH2] (Ac-RPEV-NH2), the “cGMP Concentration” value in the series on MOLT-4 cells [1] (setting [7]) was 4.7 picograms/ml; in the series on MOLT-4 cells [1] (setting [8]), 9.41 picograms/ml; in the series with MOLT-4 cells [1] (setting [9]), 16.76 picograms/ml; in the series on MOLT-4 cells [1] (setting [10]), 25.00 picograms/ml.
On to `CC(=O)N[C@@H](CCCNC(=N)N)C(=O)N1CCC[C@H]1C(=O)N[C@H](C(=O)N[C@@H](C)C(N)=O)C(C)C` [Acetyl-Arg--Pro--Val--Ala--NH2, Acetyl-Arg-Pro-Val-Ala-NH2] (Ac-RPVA-NH2), for which the “cGMP Concentration” value is on record as 7.77 picograms/ml in the series on MOLT-4 cells [1] (setting [11]), 17.39 picograms/ml with MOLT-4 cells [1] (setting [12]) and 24.47 picograms/ml in the series on MOLT-4 cells [1] (setting [13]). Also, the “activity in cGMP dose-response curves (FIG. 2)” value in the series with MOLT-4 cells [1] (evaluated from 1 to 100 μgs/ml in MOLT-4 cells) is recorded as “active”. Moreover, in the series on BP8 murine tumor cells, the “resistance to BP8 tumor growth (percent tumor negative, tumor size; FIG. 3, 4)” value is “enabled the mice to resist the spread and growth of the tumor cells”. Besides, the “incidence of diabetes / survival in NOD female mice (FIG. 6)” value in series [4] was “restored the immune function and allowed survival of a greater number of animals than did the placebo”.
Take `CC(=O)N[C@@H](CCCNC(=N)N)C(=O)N1CCC[C@H]1C(=O)N[C@@H](CC(=O)O)C(=O)N1CCC[C@H]1C(N)=O` [Acetyl-Arg-Pro-Asp-Pro-NH2, reference compound] (Ac-RPDP-NH2): the “activity … (FIG. 1)” value with MOLT-4 cells [1] was “inactive”.
On to `CC(C)[C@H](NC(=O)[C@H](CC(=O)O)NC(=O)[C@H](CCCCN)NC(=O)[C@@H](N)CCCNC(=N)N)C(=O)O` [Arg-Lys-Asp-Val, reference compound] (H-RKDV-OH), for which the “time after which totally digested” value in series [3] (rat intestinal juice and human serum, matrix of this value not stated) came out at 25 s.
As to “Acetyl-Arg-Pro-beta-Asp-Gly-NH2 [Acetyl-Arg--Pro-β-Asp--Gly--NH2]”, the “cGMP Concentration” value in the series with MOLT-4 cells [1] (setting [7]) came out at 20.56 picograms/ml; in the series on MOLT-4 cells [1] (setting [8]) it was 31.83 picograms/ml; in the series on MOLT-4 cells [1] (setting [9]), 36.66 picograms/ml; in the series with MOLT-4 cells [1] (setting [10]) it was 34.95 picograms/ml.
“Acetyl-Arg-Pro-β-D-Asp-Val-NH2 [Acetyl-Arg--Pro-β-D-Asp--Val--NH2]”: the “cGMP Concentration” value was 6.6 picograms/ml in the series on MOLT-4 cells [1] (setting [7]), 14.3 picograms/ml in the series with MOLT-4 cells [1] (setting [8]), 20.5 picograms/ml with MOLT-4 cells [1] (setting [9]) and 25.0 picograms/ml in the series with MOLT-4 cells [1] (setting [10]). In the series on MOLT-4 cells [1], the “activity … (FIG. 1)” value is “active”.
As for “Arg-Ala-Asp-Val (RADV; printed: Arg-Ala-Asp-Val)”, the “activity in in vitro E rosette test” value in series [5] is listed as “drastically reduced activity”.
Consider “Arg-Lys-Ala-Val (RKAV; printed: Arg-Lys-Ala-Val)”, for which, in series [5], the “activity in in vitro E rosette test” value is given as “drastically reduced activity”.
As to “Arg-Lys-Glu-Val (RKEV; printed: Arg-Lys-Glu-Val)”, in series [5], the “activity in in vitro E rosette test” value is on record as “highly active”.
Consider “RKDVY [Arg--Lys--Asp--Val--Tyr, Arg-Lys-Asp-Val-Tyr, reference compound]”, for which the “cGMP Concentration” value in the series with MOLT-4 cells [1] (setting [7]) amounted to 6.4 picograms/ml; in the series on MOLT-4 cells [1] (setting [8]), 18.3 picograms/ml; in the series on MOLT-4 cells [1] (setting [9]) it was 20.8 picograms/ml; in the series with MOLT-4 cells [1] (setting [10]), 21.9 picograms/ml; in the series with MOLT-4 cells [1] (setting [11]), 3.55 picograms/ml; with MOLT-4 cells [1] (setting [12]), 13.56 picograms/ml. For the same molecule, the “cGMP Concentration” value in the series on MOLT-4 cells [1] (setting [13]) was determined as 18.70 picograms/ml; in the series on MOLT-4 cells [1] (Table II, peptide concentration 1000 μg/ml) it was 24.85 picograms/ml. Besides, the “biological changes in MOLT-4 cells” value in the series with MOLT-4 cells [6] is “induce biological changes”. Also, in the series with CEM cells, the “biological changes in CEM cells” value is “induce biological changes”.
As to “thymopoietin: immunomodulatory protein isolated from bovine and human thymus (PEFLEDPSVLTKDKLKSELVANNVTLPAGEQRKDVYVQLYLQHLTARNR; Thymopoietin; UniProt P42166 2-50, looked up)”, the “biological changes in MOLT-4 cells” value with MOLT-4 cells [6] is given as “induce biological changes”. The “biological changes in CEM cells” value with CEM cells is “induce biological changes”.

The values above are taken from patent US5298490A, “Tetra and penta-peptides useful in regulating the immune system” (Immunobiology Research Institute, Inc., priority 1990, dated 1994).
